Data from US9248089B2, “Peptide-based compounds as inhibitors of neurotransmitter secretion” (GRF (WUHAN) BIOTECHNOLOGY INC., priority 2011, dated 2016).
Peptide text beside a SMILES is read from it.

Tested on: HEK293 cells
Experiment: HEK293 cell assay (evaluation of biological degradation, HPLC of supernatant)
Format: in vitro ADME, Human
Conditions: for Degradation after incubation with HEK293 cells: 37° C., 1.0×10^6 HEK293 cells; for Degradation after incubation with HEK293 cells / Degradation pattern/profile compared with another compound: HPLC condition D; for Degradation pattern/profile compared with another compound: incubation with HEK293 cells
Procedure: The Human Embryonic Kidney 293 (HEK293) cells may be cultured in suspension. After the HEK293 cells are collected, the cells may be washed 3 times with PBS buffer before the assay.
The stock solution of peptide-based compounds may be made by dissolving the compound in PBS buffers or in DMSO. Other solutions or solvents may be used to dissolve the peptide-based compounds for this assay.
2. Add 10 μL of the stock solution of the peptide-based compound prepared above so that the final concentration of the peptide-based compound is around 1/10th of that of the stock.
3. Incubate the resulting mixture at 37° C. for 3, 5, 10, 20, or 30 min.
4. Remove the cells by centrifugation.
5. Collect an aliquot of the supernatant solution (20 μL) and loaded it onto a reverse-phase HPLC column (3.9×150 Nova-Pak C18, Waters, Mass., USA) on an HPLC system (125 solvent module, System Gold, Beckman, Calif., USA). Peptide peaks may be detected at the wavelength of 220 nm (Diode Array Detector module 168, Beckman, Calif., USA).

## COC(=O)CC[C@H](NC(C)=O)C(=O)N[C@@H](CCC(=O)OC)C(=O)N[C@@H](CCSC)C(=O)N[C@@H](CCC(N)=O)C(=O)N[C@@H](CCCNC(=NC(=O)OC(C)(C)C)NC(=O)OC(C)(C)C)C(=O)N[C@@H](CCCNC(=NC(=O)OC(C)(C)C)NC(=O)OC(C)(C)C)C(N)=O [Compound 3, Ac-Glu(OMe)-Glu(OMe)-Met-Gln-Arg(Boc)2-Arg(Boc)2-NH2]
5 min incubation with HEK293 cells
  Detectable Compound 2 as degradation intermediate: did not produce detectable intermediacy of Compound 2
5 min incubation
  Degradation after incubation with HEK293 cells: degraded to at least two fragments
10 min incubation
  Degradation after incubation with HEK293 cells: completed degraded to the two fragments
  Degradation pattern/profile compared with another compound: degraded in the same pattern as Compound 2

## COC(=O)CC[C@H](NC(C)=O)C(=O)N[C@@H](CCC(=O)OC)C(=O)N[C@@H](CCSC)C(=O)N[C@@H](CCC(N)=O)C(=O)N[C@@H](CCCNC(=N)N)C(=O)N[C@@H](CCCNC(=N)N)C(N)=O [Compound 1, Ac-Glu(OMe)-Glu(OMe)-Met-Gln-Arg-Arg-NH2] (Ac-E(OMe)E(OMe)MQRR-NH2)
3 min incubation
  Degradation after incubation with HEK293 cells: degraded to Compound 2 and at least one new fragment
30 min incubation with HEK293 cells
  Detectable Compound 2 as degradation intermediate: No Compound 2 was detectable
30 min incubation
  Degradation after incubation with HEK293 cells: fully degraded to at least one new fragment

## Ac-EEMQRR-NH2 [Compound 2, Ac-Glu-Glu-Met-Gln-Arg-Arg-NH2, reference compound]
10 min incubation
  Degradation after incubation with HEK293 cells: degraded to at least two fragments
  Degradation pattern/profile compared with another compound: did not give the same degradation pattern as Compound 1
